Measured values published in patent US10118947B2, “Modulation of structured polypeptide specificity” (BICYCLE THERAPEUTICS LIMITED, priority 2013, dated 2018).
Where two headings read alike, the source gives them in different places. Numbered stars: 1 amine (or outer) side, 2 acyl side, 3 side chain; on linkers, the order of the positions; unused ones are H or OH. Bridge positions count the residues as written; N and C are the ends. Square brackets hold non-standard residues; d marks the D form. Peptide text beside a SMILES is read from it. TBMB = c1c(C[*:1])cc(C[*:3])cc1C[*:2]; NMeD = CN[C@@H](CC(=O)O)C(=O)O; NMeL = CN[C@@H](CC(C)C)C(=O)O

Key:
[1] = Plasma stability / fragment profiling Method #2 (MALDI-TOF, 95% plasma), human plasma; assay type: in vitro ADME; settings: peptide fragments observed after incubation in human plasma
Experimental: To obtain stability data more rapidly, peptides were also assessed in 95% plasma. Here, PBS was omitted, and a 1 mM peptide stock (in DMSO) was directly diluted into plasma (i.e. 2.5 uL stock into 47.5 uL plasma), giving a final concentration of 50 uM. 5 uL samples were taken at appropriate time points and frozen at −80 deg C. For analysis, the samples were defrosted, mixed with 15 uL of 1:1 acetonitrile:methanol, and centrifuged at 13 k for 5 min. 5 uL of the peptide-containing supernatant was aspirated and mixed with 30 mM ammonium bicarbonate in a 1:1 mixture of acetonitrile:H2O. 1 uL of this was then spotted on the MALDI plate and analysed as described above. As above, it should be noted that this is a qualitative assay serves to detect relative changes in plasma stability.
Ac-06-34-18(TMB)-NH2 Phe2 Tyr4 (referred to as wild type peptide) was subsequently subjected to human plasma, and analysed for fragments to appear over time. This was compared to the degradation profile observed in human plasma using the NMe-Arg5 derivative of 06-34-18 (FIGS. 18a and 18b). Fragmentation was determined according to Method #2.

human plasma Kallikrein = target: T1, human plasma Kallikrein (Homo sapiens, UniProt P03952); experiment: Functional enzyme inhibition assay with fluorogenic substrate Z-PheArg-AMC, human plasma Kallikrein; assay type: biochemical; settings: for Ki: read-out: Ki
T1 construct: purchased Stratech, UK
Method in brief: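 Rates of AMC release (excitation 360 nm, emission 460 nm) from 100 μM final Z-PheArg-AMC, 4% DMSO, were taken over the linear phase, typically 5 to 45 minutes. IC50 from four-parameter non-linear regression; Ki also derived.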

[2] = Table 3a, Alanine scan in Loop2
[3] = Table 3a, ratio of Ki to wild type
[4] = Table 3b, D-amino acid scan in Loop2
[5] = Table 3b, ratio of Ki to wild type
[6] = Table 25a, fold change of Ki of variant compared to WT
[7] = Table 25a, α-N-methyl amino acid scan in Loop2, human plasma kallikrein

T1 sequence (P03952 20-638): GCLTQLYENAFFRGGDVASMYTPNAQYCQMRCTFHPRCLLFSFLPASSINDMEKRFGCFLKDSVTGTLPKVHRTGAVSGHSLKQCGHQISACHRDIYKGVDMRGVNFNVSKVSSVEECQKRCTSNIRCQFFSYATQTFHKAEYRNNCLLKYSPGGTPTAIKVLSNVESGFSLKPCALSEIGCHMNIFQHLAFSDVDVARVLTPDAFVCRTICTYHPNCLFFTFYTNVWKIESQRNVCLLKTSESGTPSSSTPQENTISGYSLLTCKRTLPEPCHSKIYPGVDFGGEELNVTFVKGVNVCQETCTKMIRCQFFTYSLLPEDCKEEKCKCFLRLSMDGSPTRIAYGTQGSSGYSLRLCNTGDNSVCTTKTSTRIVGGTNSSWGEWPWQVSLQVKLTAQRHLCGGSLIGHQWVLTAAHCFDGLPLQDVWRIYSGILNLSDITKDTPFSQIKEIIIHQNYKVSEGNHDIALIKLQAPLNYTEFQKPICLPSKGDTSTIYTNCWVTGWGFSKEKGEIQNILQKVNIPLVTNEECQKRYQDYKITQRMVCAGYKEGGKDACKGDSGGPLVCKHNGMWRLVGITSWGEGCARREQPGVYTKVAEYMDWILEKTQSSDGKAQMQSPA

| SMILES | Fragments (human plasma) ([1]; Table 3a) | Ki (human plasma Kallikrein; [2]) [nM] | F (Kivar/KiWT) (human plasma Kallikrein; [3]) | Fragments (human plasma) ([1]; Table 3b) | Ki (human plasma Kallikrein; [4]) [nM] | F (Kivar/KiWT) (human plasma Kallikrein; [5]) | Fragments (human plasma) ([1]; Table 25a) | F (Kivar/KiWT) (human plasma Kallikrein; [6]) | Ki (human plasma Kallikrein; [7]) [nM] | also measured |
| --- | --- | --- | --- | --- | --- | --- | --- | --- | --- | --- |
| CC(=O)N[C@H]1CSCc2cc3cc(c2)CSC[C@H](NC(=O)[C@H](CCCNC(=N)N)NC(=O)[C@H](Cc2ccc(O)cc2)NC(=O)[C@@H]2CCCN2C(=O)[C@H](Cc2ccccc2)NC(=O)[C@H](CO)NC1=O)C(=O)N[C@@H](CC(C)C)C(=O)N[C@@H](Cc1c[nH]cn1)C(=O)N[C@@H](C)C(=O)N[C@@H](CC(=O)O)C(=O)N[C@@H](CC(C)C)C(=O)N[C@H](C(N)=O)CSC3 [Ac-(06-34-18) Phe2 Tyr4 Ala8] (Ac-CSFPYRCLHADLC-NH2; linker 1-7-13 via TBMB) | -LHQ, -R | 1.74 | 4 |  |  |  |  |  |  |  |
| CC(=O)N[C@H]1CSCc2cc3cc(c2)CSC[C@H](NC(=O)[C@H](CCCNC(=N)N)NC(=O)[C@H](Cc2ccc(O)cc2)NC(=O)[C@@H]2CCCN2C(=O)[C@H](Cc2ccccc2)NC(=O)[C@H](CO)NC1=O)C(=O)N[C@@H](CC(C)C)C(=O)N[C@@H](C)C(=O)N[C@@H](CCC(N)=O)C(=O)N[C@@H](CC(=O)O)C(=O)N[C@@H](CC(C)C)C(=O)N[C@H](C(N)=O)CSC3 [Ac-(06-34-18) Phe2 Tyr4 Ala7] (Ac-CSFPYRCLAQDLC-NH2; linker 1-7-13 via TBMB) | -R | 23.4 | 56 |  |  |  |  |  |  | Kd (human plasma Kallikrein): 23 nM; reduction in potency/affinity compared to wildtype (human plasma Kallikrein): 56 fold |
| CC(=O)N[C@H]1CSCc2cc3cc(c2)CSC[C@H](NC(=O)[C@H](CCCNC(=N)N)NC(=O)[C@H](Cc2ccc(O)cc2)NC(=O)[C@@H]2CCCN2C(=O)[C@H](Cc2ccccc2)NC(=O)[C@H](CO)NC1=O)C(=O)N[C@@H](CC(C)C)C(=O)N[C@H](Cc1c[nH]cn1)C(=O)N[C@@H](CCC(N)=O)C(=O)N[C@@H](CC(=O)O)C(=O)N[C@@H](CC(C)C)C(=O)N[C@H](C(N)=O)CSC3 [Ac-(06-34-18) Phe2 Tyr4 D-His7] (Ac-CSFPYRCL[dH]QDLC-NH2; linker 1-7-13 via TBMB) |  |  |  | -R, -FPYR | 129 | 308 |  |  |  |  |
| CC(=O)N[C@H]1CSCc2cc3cc(c2)CSC[C@H](NC(=O)[C@H](CCCNC(=N)N)NC(=O)[C@H](Cc2ccc(O)cc2)NC(=O)[C@@H]2CCCN2C(=O)[C@H](Cc2ccccc2)NC(=O)[C@H](CO)NC1=O)C(=O)N[C@@H](CC(C)C)C(=O)N[C@@H](Cc1c[nH]cn1)C(=O)N[C@@H](CCC(N)=O)C(=O)N(C)[C@@H](CC(=O)O)C(=O)N[C@@H](CC(C)C)C(=O)N[C@H](C(N)=O)CSC3 [Ac-(06-34-18) Phe2 Tyr4 NMe-Asp9] (Ac-CSFPYRCLHQ[NMeD]LC-NH2; linker 1-7-13 via TBMB) |  |  |  |  |  |  | -R, -FPYR | 105 | 44.3 |  |
| CC(=O)N[C@H]1CSCc2cc3cc(c2)CSC[C@H](NC(=O)[C@H](CCCNC(=N)N)NC(=O)[C@H](Cc2ccc(O)cc2)NC(=O)[C@@H]2CCCN2C(=O)[C@H](Cc2ccccc2)NC(=O)[C@H](CO)NC1=O)C(=O)N(C)[C@@H](CC(C)C)C(=O)N[C@@H](Cc1c[nH]cn1)C(=O)N[C@@H](CCC(N)=O)C(=O)N[C@@H](CC(=O)O)C(=O)N[C@@H](CC(C)C)C(=O)N[C@H](C(N)=O)CSC3 [Ac-(06-34-18) Phe2 Tyr4 NMe-Leu6] (Ac-CSFPYRC[NMeL]HQDLC-NH2; linker 1-7-13 via TBMB) |  |  |  |  |  |  | -R, -FPYR | 137 | 57.4 |  |
| CC(=O)N[C@H]1CSCc2cc3cc(c2)CSC[C@H](NC(=O)[C@H](CCCNC(=N)N)NC(=O)[C@H](Cc2ccc(O)cc2)NC(=O)[C@@H]2CCCN2C(=O)[C@H](Cc2ccccc2)NC(=O)[C@H](CO)NC1=O)C(=O)N[C@@H](CC(C)C)C(=O)N[C@@H](Cc1c[nH]cn1)C(=O)N[C@H](CCC(N)=O)C(=O)N[C@@H](CC(=O)O)C(=O)N[C@@H](CC(C)C)C(=O)N[C@H](C(N)=O)CSC3 [Ac-(06-34-18) Phe2 Tyr4 D-Gln8] (Ac-CSFPYRCLH[dQ]DLC-NH2; linker 1-7-13 via TBMB) |  |  |  | -R, -FPYR | 317 | 755 |  |  |  |  |
